# Assay results: ChEMBL document CHEMBL5352395, “The discovery of novel antifungal phenylpyridines derivatives based on CYP53 binding model” (Eur J Med Chem, 2022)
# The source made the active and inactive calls. The calls are words filed in the database; no cut-off is given here.
# Legend:
# [1] = test system: Candida albicans; assay: Antifungal activity against Candida albicans 901 assessed as reduction in fungal growth; format: functional
# [2] = test system: Candida albicans; assay: Antifungal activity against Candida albicans ATCC 10231 assessed as reduction in fungal growth; format: functional
# [3] = test system: Nakaseomyces glabratus; assay: Antifungal activity against Candida glabrata ATCC 0001 assessed as reduction in fungal growth; format: functional
# [4] = test system: Aspergillus fumigatus; assay: Antifungal activity against Aspergillus fumigatus KM8001 assessed as reduction in fungal growth; format: functional
# [5] = test system: Pichia kudriavzevii; assay: Antifungal activity against Candida krusei ATCC 6258 assessed as reduction in fungal growth; format: functional
# [6] = test system: Candida albicans; assay: Antifungal activity against Candida albicans 17# assessed as reduction in fungal growth; format: functional
# [7] = test system: Candida albicans; assay: Induction of morphological changes in Candida albicans ATCC SC5314 assessed as increase in cell permeability at 1 uM/ml incubated for 48 hrs by transmission electron microscopy; format: functional, organism-based
# [8] = Inhibition of CYP53 in Candida albicans ATCC SC5314 assessed as unknown sterol level at 8 ug/ml incubated for 16 hrs by LC-MS analysis (Rvb=5.9%); format: ADME; parameters: scale not given: the % may be the effect or the level left; conditions: at 8 µg/mL
# [9] = test system: Candida albicans; assay: Induction of apoptosis in Candida albicans ATCC SC5314 assessed as necrotic cells incubated for 24 hrs by Annexin V-FITC/PI staining based flow cytometry method (reference value: 5.36%); format: functional
# [10] = test system: Candida albicans; assay: Induction of apoptosis in Candida albicans ATCC SC5314 assessed as mid apoptotic cells incubated for 24 hrs by Annexin V-FITC/PI staining based flow cytometry method (reference value: 1.03%); format: functional
# [11] = test system: Candida albicans; assay: Antifungal activity against Candida albicans ATCC SC5314 infected in mouse assessed as reduction in fungal growth in infection region administered intraperitoneally on day 2,4,6,8 and 10 and measured after 12 days by H and E/GMS staining based analysis; format: functional, organism-based; conditions: route ip, time 12.0 day
# [12] = Toxicity in ip dosed mouse assessed as pathological damage in kidneys administered on day 2,4,6,8,10 and measured on day 12 by H and E staining based analysis; format: organism-based; conditions: in vivo, 288 h, time 12 day
# [13] = Inhibition of CYP53 in Candida albicans ATCC SC5314 assessed as benzoate level at 8 ug/ml incubated for 16 hrs by LC-MS analysis (Rvb=11.4%); format: ADME; parameters: scale not given: the % may be the effect or the level left; conditions: at 8 µg/mL
# [14] = Toxicity in ip dosed mouse assessed as increase in body weight administered for 10 days; format: organism-based; conditions: in vivo, 240 h, time 10 day
# [15] = test system: Candida albicans; assay: Induction of morphological changes in Candida albicans ATCC SC5314 assessed as appearance of cell wall and membrane remnants at 1 uM/ml incubated for 96 hrs by transmission electron microscopy; format: functional, organism-based
# [16] = test system: Candida albicans; assay: Induction of apoptosis in Candida albicans ATCC SC5314 assessed as live cells incubated for 24 hrs by Annexin V-FITC/PI staining based flow cytometry method (reference value: 92.69%); format: functional
# [17] = test system: Candida albicans; assay: Induction of morphological changes in Candida albicans ATCC SC5314 assessed as disappearance of marginal region of fungal cells at 1 uM/ml incubated for 48 hrs by transmission electron microscopy; format: functional, organism-based
# [18] = Toxicity in ip dosed mouse assessed as pathological damage in lungs administered on day 2,4,6,8,10 and measured on day 12 by H and E staining based analysis; format: organism-based; conditions: in vivo, 288 h, time 12 day
# [19] = test system: Candida albicans; assay: Induction of morphological changes in Candida albicans ATCC SC5314 assessed as leakage of endogenous substances in fungal cells at 1 uM/ml incubated for 72 hrs by transmission electron microscopy; format: functional, organism-based
# [20] = test system: Candida albicans; assay: Induction of morphological changes in Candida albicans ATCC SC5314 assessed as reduction in cell wall thickness at 1 uM/ml incubated for 48 hrs by transmission electron microscopy; format: functional, organism-based
# [21] = test system: Candida albicans; assay: Induction of mitochondrial membrane potential loss in Candida albicans ATCC SC5314 assessed as polarized cells at 1 uM/ml incubated for 24 hrs by JC-1 staining based flow cytometry analysis (reference value: 93.17%); format: functional
# [22] = test system: Candida albicans; assay: Induction of morphological changes in Candida albicans ATCC SC5314 assessed as rupture of cell membranes at 1 uM/ml incubated for 72 hrs by transmission electron microscopy; format: functional, organism-based
# [23] = Inhibition of CYP53 in Candida albicans ATCC SC5314 assessed as 4-hydroxybenzoate level at 8 ug/ml incubated for 16 hrs by LC-MS analysis (Rvb=82.7%); format: ADME; parameters: scale not given: the % may be the effect or the level left; conditions: at 8 µg/mL
# [24] = test system: Candida albicans; assay: Induction of apoptosis in Candida albicans ATCC SC5314 assessed as late apoptotic cells incubated for 24 hrs by Annexin V-FITC/PI staining based flow cytometry method (reference value: 1.22%); format: functional
# [25] = Toxicity in ip dosed mouse assessed as blood urea nitrogen level in plasma administered on day 2,4,6,8 and 10 (reference value: 7.4 +/ -0.6 mmol/L); format: organism-based; conditions: in vivo, 240 h, time 10 day
# [26] = test system: Candida albicans; assay: Antifungal activity against Candida albicans ATCC SC5314 assessed as induction of ROS production by measuring increase in fluorescence intensity; format: functional, organism-based
# [27] = Toxicity in ip dosed mouse assessed as pathological damage in heart administered on day 2,4,6,8,10 and measured on day 12 by H and E staining based analysis; format: organism-based; conditions: in vivo, 288 h, time 12 day
# [28] = test system: Candida albicans; assay: Antifungal activity against Candida albicans ATCC SC5314 assessed as reduction in fungal cell proliferation by measuring cell count (reference value: 216); format: functional
# [29] = test system: Candida albicans; assay: Antifungal activity against Candida albicans ATCC SC5314 infected in mouse assessed as reduction in fungal infection administered intraperitoneally on day 2,4,6,8 and 10 and measured after 12 days; format: functional, organism-based; conditions: route ip, time 12.0 day
# [30] = test system: Candida albicans; assay: Antifungal activity against Candida albicans ATCC SC5314 infected in mouse assessed as recovery of regular cell distribution administered intraperitoneally on day 2,4,6,8 and 10 and measured after 12 days by H and E/GMS staining based analysis; format: functional, organism-based; conditions: route ip, time 12.0 day
# [31] = Toxicity in ip dosed mouse assessed as pathological damage in liver administered on day 2,4,6,8,10 and measured on day 12 by H and E staining based analysis; format: organism-based; conditions: in vivo, 288 h, time 12 day
# [32] = Toxicity in ip dosed mouse assessed as pathological damage in spleen administered on day 2,4,6,8,10 and measured on day 12 by H and E staining based analysis; format: organism-based; conditions: in vivo, 288 h, time 12 day
# [33] = Toxicity in ip dosed mouse assessed as AST level in plasma administered on day 2,4,6,8 and 10 (reference value: 60.3 +/- 5.4 IU/L); format: organism-based; conditions: in vivo, 240 h, time 10 day
# [34] = test system: Candida albicans; assay: Antifungal activity against Candida albicans ATCC SC5314 infected in mouse assessed as disappearance of nuclear aggregation phenomenon administered intraperitoneally on day 2,4,6,8 and 10 and measured after 12 days by H and E/GMS staining based analysis; format: functional, organism-based; conditions: route ip, time 12.0 day
# [35] = Toxicity in ip dosed mouse assessed as ALT level in plasma administered on day 2,4,6,8 and 10 (reference value: 35.9 +/- 4.6 IU/L); format: organism-based; conditions: in vivo, 240 h, time 10 day
# [36] = test system: Candida albicans; assay: Antifungal activity against Candida albicans ATCC SC5314 assessed as reduction in fungal cell proliferation by measuring cell count (reference value: 235); format: functional
smiles,measurement,setting,value
CCC(C)C(NC(=O)c1ccc(C(=O)N2CCC(C)CC2)cc1)C(=O)Nc1ccncc1 (stereo unspecified),MIC,[1],8 µg/mL
same,MIC,[2],1 µg/mL
same,MIC,[3],2 µg/mL
same,MIC,[4],8 µg/mL
same,MIC,[5],1 µg/mL
same,MIC,[6],4 µg/mL
CCC(C)C(NC(=O)c1ccc(/C=C/C(=O)N2CCC(C)CC2)cc1)C(=O)Nc1ccncc1 (stereo unspecified),MIC,[1],8 µg/mL
same,MIC,[2],2 µg/mL
same,MIC,[3],2 µg/mL
same,MIC,[4],> 16 µg/mL
same,MIC,[5],1 µg/mL
same,MIC,[6],4 µg/mL
CCC(C)C(NC(=O)c1ccc(C(=O)OC)cc1)C(=O)Nc1ccncc1 (stereo unspecified),MIC,[1],4 µg/mL
same,MIC,[2],4 µg/mL
same,MIC,[3],4 µg/mL
same,MIC,[4],> 16 µg/mL
same,MIC,[5],2 µg/mL
same,MIC,[6],2 µg/mL
CC1CCN(C(=O)c2ccc(C(=O)NC(C)C(=O)Nc3ccncc3)cc2)CC1 (stereo unspecified),MIC,[1],2 µg/mL
same,Activity,[7],Active
same,Activity,[8],8.2%
same,Activity,[9],40.61%
same,Activity,[10],0.31%
same,Activity,[11],Active
same,Activity,[12],Non-Toxic
same,Activity,[13],68.5%
same,MIC,[2],0.5 µg/mL
same,Activity,[14],Toxic
same,Activity,[15],Active
same,Activity,[16],58.17%
same,Activity,[17],Active
same,Activity,[18],Non-Toxic
same,Activity,[19],Active
same,Activity,[20],Active
same,MIC,[3],0.5 µg/mL
same,MIC,[4],2 µg/mL
same,MIC,[5],1 µg/mL
same,Activity,[21],68.3%
same,Activity,[22],Active
same,Activity,[23],23.3%
same,Activity,[24],0.91%
same,MIC,[6],2 µg/mL
same,Activity,[25],6.1 mmol/L
same,Activity,[26],Active
same,Activity,[27],Non-Toxic
same,Activity,[28],123
same,Activity,[29],Active
same,Activity,[30],Active
same,Activity,[31],Non-Toxic
same,Activity,[32],Non-Toxic
same,Activity,[33],53.7 IU/L
same,Activity,[34],Active
same,Activity,[35],47.4 IU/L
COC(=O)c1ccc(C(=O)NCC(=O)Nc2ccncc2)cc1,MIC,[1],2 µg/mL
same,Activity,[36],112
same,Activity,[8],6.4%
same,Activity,[9],33.06%
same,Activity,[10],0.46%
same,Activity,[11],Active
same,Activity,[12],Non-Toxic
same,Activity,[13],64.1%
same,MIC,[2],1 µg/mL
same,Activity,[14],Toxic
same,Activity,[16],65.51%
same,Activity,[18],Non-Toxic
same,MIC,[3],1 µg/mL
same,MIC,[4],4 µg/mL
same,MIC,[5],0.5 µg/mL
same,Activity,[21],65.59%
same,Activity,[23],29.5%
same,Activity,[24],0.97%
same,MIC,[6],2 µg/mL
same,Activity,[25],6.6 mmol/L
same,Activity,[27],Non-Toxic
same,Activity,[29],Active
same,Activity,[30],Active
same,Activity,[31],Non-Toxic
same,Activity,[32],Non-Toxic
same,Activity,[33],68.4 IU/L
same,Activity,[34],Active
same,Activity,[35],42.8 IU/L
COC(=O)c1ccc(C(=O)NC(C)C(=O)Nc2ccncc2)cc1 (stereo unspecified),MIC,[1],1 µg/mL
same,MIC,[2],0.5 µg/mL
same,MIC,[3],2 µg/mL
same,MIC,[4],4 µg/mL
same,MIC,[5],1 µg/mL
same,MIC,[6],4 µg/mL
CC1CCN(C(=O)/C=C/c2ccc(C(=O)NC(C)C(=O)Nc3ccncc3)cc2)CC1 (stereo unspecified),MIC,[1],4 µg/mL
same,MIC,[2],2 µg/mL
same,MIC,[3],4 µg/mL
same,MIC,[4],4 µg/mL
same,MIC,[5],4 µg/mL
same,MIC,[6],8 µg/mL
CC1CCN(C(=O)c2ccc(C(=O)NCC(=O)Nc3ccncc3)cc2)CC1,MIC,[1],4 µg/mL
same,MIC,[2],1 µg/mL
same,MIC,[3],2 µg/mL
same,MIC,[4],4 µg/mL
same,MIC,[5],0.5 µg/mL
same,MIC,[6],4 µg/mL
CC1CCN(C(=O)/C=C/c2ccc(C(=O)NCC(=O)Nc3ccncc3)cc2)CC1,MIC,[1],4 µg/mL
same,MIC,[2],1 µg/mL
same,MIC,[3],1 µg/mL
same,MIC,[4],8 µg/mL
same,MIC,[5],2 µg/mL
same,MIC,[6],8 µg/mL
OC(Cn1cncn1)(Cn1cncn1)c1ccc(F)cc1F [FLUCONAZOLE],MIC,[1],> 16 µg/mL
same,MIC,[2],0.5 µg/mL
same,MIC,[3],0.5 µg/mL
same,MIC,[4],4 µg/mL
same,MIC,[5],0.5 µg/mL
same,MIC,[6],> 16 µg/mL
